Measured values from patent US6841577B2, “Pesticidal activity of plant essential oils and their constituents” (Ecosmart Technologies, Inc., priority 1999, dated 2005).
Read-outs that look alike come from different tables or passages of the source.

Assays:
[1] = system: octopamine receptor sites; experiment: 3H-OA binding to ventral nerve cord / synaptosomal membrane protein; design: species or system American cockroach (Periplaneta americana); settings: for classification with respect to octopamine receptor sites (OAR): based on the binding data of Tables 1-3; for cpm 3H-OA/500 μg protein: Table 3
Description: Different concentrations of unlabeled octopamine (OA) (20, 30, 40, 50, 60, 100 ng) were tested on the binding activity as a positive control. Test chemicals were dissolved in acetone before the assay. Different concentrations of the test chemicals were added directly to the protein preparation from ventral nerve cord. The same amount of solvent (1 μl 0.1%) were added to the control samples. All assays with test chemicals were run in the presence and absence of 50 ng OA. All chemicals were added to the protein extract 20 min prior the addition of radio labeled ^3H-OA(100,000 cpm/sample). After 30 min at 24° C. of the addition of ^3H-OA, the reaction was stopped by the addition of ice-cold Tris buffer, and the samples were filtered through GF/C membrane using water vacuum. After two washes each with 5 ml Tris buffer, the membrane was removed, air dried and the radioactivity was counted in 4 ml liquid scintillation solution. The specific binding was calculated as the difference between the values in the presence and absence of unlabeled OA. All data are calculated as the mean±standard deviation of 5 assays.
Additional tests were conducted on radio labeled octopamine using other purified naturally occurring materials as given in Tables 2 and 3.

larvae = experiment: Feeding deterrence of carvacrol; type: in vivo; settings: on doubling the concentration
Description: FIG. 6 is a graph of the feeding deterrence of carvacrol vs. larvae.
The 5-blend can be considered as a relatively broad spectrum pesticide. […] The effect of concentration of the pesticide is shown in […] where a doubling in the concentration of carvacrol produces a 3-4 fold increase in deterrence of feeding.

American cockroach = experiment: Cross walk jar test on pre-treated surface; type: in vivo; settings: for pesticidal activity against cockroaches, in words: in vivo
Description: In the test, a known amount of the test material was dissolved in a known volume of acetone and applied to small jars and all inner bottom surfaces were covered. The bottom surface of each jar is approximately 250 cm^2. One hour after the acetone had completely evaporated, five American cockroaches were introduced to each jar. Control jars were treated exactly as above but with the known amount of acetone only.
The results of the “cross walk” jar tests are in Table 8 in which the “4-blend” was dispersed as an aerosol and a dust in the jar.
In this test, the acetone solution of the test material was placed in the jar and the roach inserted into the jar after the acetone had evaporated.
Mortality was measured 24 hours after exposure.
The “4-blend” and the individual constituents of the “4-blend” were tested using 10 cockroaches for each “cross walk” treatment. In addition, pyrethrins were tested separately and mixed with the various components.
A concentration of 100 mg/jar was used for each individual alone. In the co-treatment experiment without pyrethrins, 20 mg/jar for each chemical was used. In the cotreatment experiment with pyrethrins, 20 mg/jar for the naturally occurring plant material was used. Pyrethrins was used at 2 mg/jar. […] It was noted above that the mortality is dependent upon concentration. […] Some synergism is found between pyrethrins and either α-terpineol or benzyl alcohol.

[2] = system: 2nd instar green peach aphid nymphs; experiment: Cabbage leaf disc bioassay; type: in vivo
Description: A bioassay similar to that for S. litura larvae was used for additional larvae. Cabbage leaf discs were dipped in emulsified aqueous solutions, diluted 1:200 in water, on which 2nd instar green peach aphid nymphs were placed. For each treatment there was 10 aphids per disc with 5 replicates; each experiment was replicated in time (successive days) from 3-5 times. After 24 hours, aphids were reported as being (1) on the leaf disc and feeding; (2) alive, but walking off the disc; or (3) dead. In the field, aphids which cease feeding and abandon a host plant are very unlikely to survive.

[3] = system: 3rd instar Asian armyworms (Spodoptera litura); settings: for Mortality (%): control 0
Description: Additional synergistic testing was conducted on 3rd instar Asian armyworms (Spodoptera litura). […] The number of replicates is given as “n”.

[4] = 500 ng/ml, solvent control 1385 ± 101

Compound | classification with respect to octopamine receptor sites (OAR) [1] | mortality at 10 mg (American cockroach; Periplaneta americana, 24 h) | mortality at 20 mg (American cockroach; Periplaneta americana, 24 h) | mortality at 40 mg (American cockroach; Periplaneta americana, 24 h) | mortality at 50 mg (American cockroach; Periplaneta americana, 24 h) | mortality at 100 mg (American cockroach; Periplaneta americana, 24 h) | pesticidal activity against cockroaches, in words (American cockroach) | cpm 3H-OA/500 μg protein [1, 4] | also measured
Cc1ccc(C(C)C)cc1O [Carvacol, Carvacrol] | OAR Agonists | 0% | 20% | 50% | 80% | 100% | high pesticidal activity | – | agonist/antagonist note to 3H-OA binding ([1]; 1000 ng/ml): agonist; dpm 3H-OA/500 μg protein ([1]; 1000 ng/ml, Table 2, solvent control 930 ± 89): 2366 ± 149 dpm 3H-OA/500 μg protein; increase in deterrence of feeding (larvae): 3-4 fold
CCC(=O)OCCc1ccccc1 [Phenethyl propionate] | extremely high OAR antagonists | 30% | 40% | 90% | 100% | 100% | high pesticidal activity | 0173 ± 022 cpm 3H-OA/500 μg protein | activity/binding at octopamine receptor sites, in words [1]: antagonists which are most strongly bound; agonist/antagonist note to 3H-OA binding ([1]; 500 ng/ml): antagonist; activity on green peach aphid nymphs, in words ([2]; 1:200 dilution): essentially inactive; Percentage of aphids Dead ([2]; n = 250, Table 17, control 8.7): 13.3%; Percentage of aphids Walking (off disc) ([2]; n = 250, Table 17, control 15.3): 25.3%; Percentage of aphids Feeding ([2]; n = 250, Table 17, control 76.0): 62.0%; activity on Asian armyworms, in words ([3]; in vivo): relatively low activity; mortality at 30 mg (American cockroach; Periplaneta americana, 24 h): 60%
Cc1ccc(C(C)C)c(O)c1 [Thymol] | Non-OAR Specific Toxicants | – | – | 80% | – | 100% | – | 1310 ± 91 cpm 3H-OA/500 μg protein | cpm 3H-OA/500 μg protein ([1]; 1000 ng/ml, solvent control 1915 ± 110): 806 ± 71 cpm 3H-OA/500 μg protein; Mortality (%) ([3]; diluted 1:400 with water, n = 50, Table 12): 98%; Mortality (%) ([3]; dilution rate 1:500, n = 150, Table 14 right): 24.5%; Mortality (%) ([3]; n = 50, Table 13 right, 1:500 printed for Thymol only): 29%
